Measured values from ChEMBL document CHEMBL2029217, “Design, synthesis, and structure-activity relationships of novel spiro-piperidines as acetyl-CoA carboxylase inhibitors” (Bioorg Med Chem Lett, 2012).

Key:
[1] = Lipophilicity, log D of the compound at pH 7.4; details: buffer
[2] = Clearance in human hepatic microsomes assessed per mg protein at 1 uM after 20 mins by HPLC analysis; format: ADME, Microsome; details: liver microsomes, read-out: CLH
[3] = biological target: Acetyl-CoA carboxylase 2 (Homo sapiens, UniProt O00763); assay: Inhibition of human ACC2 using acetyl-coA as substrate incubated for 60 mins prior to substrate addition measured after 20 mins by malachite green assay
Acetyl-CoA carboxylase 2, sequence (O00763 whole entry): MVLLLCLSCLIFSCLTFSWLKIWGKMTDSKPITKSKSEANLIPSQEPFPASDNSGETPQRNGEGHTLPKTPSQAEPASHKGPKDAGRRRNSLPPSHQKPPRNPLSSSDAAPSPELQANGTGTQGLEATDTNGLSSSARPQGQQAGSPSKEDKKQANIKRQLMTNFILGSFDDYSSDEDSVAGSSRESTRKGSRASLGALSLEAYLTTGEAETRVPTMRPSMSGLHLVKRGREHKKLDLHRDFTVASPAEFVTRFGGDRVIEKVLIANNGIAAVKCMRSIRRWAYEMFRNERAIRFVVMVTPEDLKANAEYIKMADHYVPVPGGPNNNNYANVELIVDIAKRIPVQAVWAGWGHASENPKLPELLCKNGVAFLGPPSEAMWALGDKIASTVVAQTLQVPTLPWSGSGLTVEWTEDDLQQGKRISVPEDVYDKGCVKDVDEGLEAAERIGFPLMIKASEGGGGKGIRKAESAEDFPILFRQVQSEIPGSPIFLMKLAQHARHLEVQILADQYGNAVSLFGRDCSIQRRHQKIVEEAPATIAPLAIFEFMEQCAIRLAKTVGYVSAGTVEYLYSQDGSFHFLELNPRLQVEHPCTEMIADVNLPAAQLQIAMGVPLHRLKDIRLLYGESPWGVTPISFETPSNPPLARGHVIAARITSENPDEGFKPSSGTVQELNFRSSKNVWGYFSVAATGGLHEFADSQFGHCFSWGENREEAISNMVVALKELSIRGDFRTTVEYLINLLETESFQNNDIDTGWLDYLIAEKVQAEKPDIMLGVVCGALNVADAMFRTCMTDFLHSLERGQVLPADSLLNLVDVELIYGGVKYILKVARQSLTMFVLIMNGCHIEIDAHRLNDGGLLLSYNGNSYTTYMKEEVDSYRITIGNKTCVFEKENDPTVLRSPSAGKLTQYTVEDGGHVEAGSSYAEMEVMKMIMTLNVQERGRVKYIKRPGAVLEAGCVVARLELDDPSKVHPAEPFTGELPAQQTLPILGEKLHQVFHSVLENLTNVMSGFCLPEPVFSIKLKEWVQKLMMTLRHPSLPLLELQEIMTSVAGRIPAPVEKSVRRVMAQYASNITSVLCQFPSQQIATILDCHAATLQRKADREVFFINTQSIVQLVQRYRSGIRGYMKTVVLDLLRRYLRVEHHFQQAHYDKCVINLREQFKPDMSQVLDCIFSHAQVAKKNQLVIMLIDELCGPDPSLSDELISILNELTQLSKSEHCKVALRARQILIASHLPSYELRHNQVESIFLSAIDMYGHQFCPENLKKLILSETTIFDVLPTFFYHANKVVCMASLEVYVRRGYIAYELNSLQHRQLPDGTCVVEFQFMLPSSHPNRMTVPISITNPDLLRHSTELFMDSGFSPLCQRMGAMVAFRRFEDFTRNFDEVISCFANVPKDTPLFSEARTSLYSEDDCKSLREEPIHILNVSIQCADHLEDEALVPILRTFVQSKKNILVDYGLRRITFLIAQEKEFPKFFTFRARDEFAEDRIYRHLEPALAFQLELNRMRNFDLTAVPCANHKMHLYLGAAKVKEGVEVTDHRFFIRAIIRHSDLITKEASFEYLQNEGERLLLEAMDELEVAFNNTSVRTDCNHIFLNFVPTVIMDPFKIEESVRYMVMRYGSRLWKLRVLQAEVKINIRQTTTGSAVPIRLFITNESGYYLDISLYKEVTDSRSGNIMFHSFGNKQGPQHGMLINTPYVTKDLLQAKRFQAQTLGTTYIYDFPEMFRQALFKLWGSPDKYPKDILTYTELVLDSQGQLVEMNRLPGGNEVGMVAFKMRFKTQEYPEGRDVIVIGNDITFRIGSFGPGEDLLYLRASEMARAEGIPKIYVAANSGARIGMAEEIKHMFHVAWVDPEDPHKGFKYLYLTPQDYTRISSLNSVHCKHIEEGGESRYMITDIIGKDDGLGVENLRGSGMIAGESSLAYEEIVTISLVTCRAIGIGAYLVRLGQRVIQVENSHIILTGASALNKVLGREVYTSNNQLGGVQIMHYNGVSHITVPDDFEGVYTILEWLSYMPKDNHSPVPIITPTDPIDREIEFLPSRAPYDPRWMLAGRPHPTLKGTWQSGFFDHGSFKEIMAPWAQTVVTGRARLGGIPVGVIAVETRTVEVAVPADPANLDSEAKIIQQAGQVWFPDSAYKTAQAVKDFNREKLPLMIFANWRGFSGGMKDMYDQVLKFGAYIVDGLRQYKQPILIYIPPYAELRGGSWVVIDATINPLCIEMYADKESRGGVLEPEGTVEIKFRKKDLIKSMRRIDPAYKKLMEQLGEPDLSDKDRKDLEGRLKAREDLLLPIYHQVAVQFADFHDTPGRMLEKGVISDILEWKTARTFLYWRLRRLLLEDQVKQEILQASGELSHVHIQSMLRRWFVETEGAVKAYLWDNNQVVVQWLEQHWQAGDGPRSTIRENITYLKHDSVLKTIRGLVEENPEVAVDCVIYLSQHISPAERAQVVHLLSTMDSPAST

[4] = biological target: Acetyl-CoA carboxylase 1 (Homo sapiens, UniProt Q13085); assay: Inhibition of human ACC1 using acetyl-coA as substrate incubated for 60 mins prior to substrate addition measured after 20 mins by malachite green assay
[5] = Tmax in Crl:CD(SD)(IGS) rat at 3 mg/kg, po; format: ADME, organism-based; parameters: dose 3 mg/kg, route oral; details: in vivo
[6] = Cmax in Crl:CD(SD)(IGS) rat at 3 mg/kg, po; format: ADME, organism-based; parameters: dose 3 mg/kg, route oral; details: in vivo
[7] = Mean residence time in Crl:CD(SD)(IGS) rat at 1 mg/kg, iv; format: ADME, organism-based; parameters: dose 1 mg/kg, route intravenous; details: in vivo
[8] = Volume of distribution at steady state in Crl:CD(SD)(IGS) rat at 1 mg/kg, iv; format: ADME, organism-based; parameters: dose 1 mg/kg, route intravenous; details: in vivo, read-out: Vdss
[9] = Total clearance in Crl:CD(SD)(IGS) rat at 1 mg/kg, iv; format: ADME, organism-based; parameters: dose 1 mg/kg, route intravenous; details: in vivo
[10] = AUC in Crl:CD(SD)(IGS) rat at 3 mg/kg, po; format: ADME, organism-based; parameters: dose 3 mg/kg, route oral; details: plasma
[11] = Oral bioavailability in Crl:CD(SD)(IGS) rat at 3 mg/kg; format: ADME, organism-based; details: in vivo

| Compound | logD [1] | microsomal CLint at 1 µM [2] | IC50 [3] | IC50 [4] | Tmax [5] | Cmax [6] | MRT [7] | Vd [8] | clearance [9] | AUC [10] | bioavailability [11] |
| --- | --- | --- | --- | --- | --- | --- | --- | --- | --- | --- | --- |
| CCN1C(=O)CC2(CCCN(C3CCN(C(=O)c4c(NC(N)=O)sc5ccccc45)CC3)C2)C1=O (stereo not given) | 2.2 | 64 µL/min/mg | 23 nM | 350 nM | – | – | – | – | – | – | – |
| CNC(=O)Nc1sc2nc(C)ccc2c1C(=O)N1CCC(N2CCC[C@@]3(C2)CC(C)(C)OC3=O)CC1 | 2.18 | 90 µL/min/mg | 4.4 nM | 48 nM | – | – | – | – | – | – | – |
| CCNC(=O)Nc1sc2nc(C)ccc2c1C(=O)N1CCC(N2CCC[C@]3(CCN(C(C)C)C3=O)C2)CC1 | 2.43 | 45 µL/min/mg | 9 nM | 93 nM | – | – | – | – | – | – | – |
| CNC(=O)Nc1sc2nc(C)ccc2c1C(=O)N1CCC(N2CCC[C@]3(CC(=O)N(C(C)C)C3=O)C2)CC1 | 2.51 | 33 µL/min/mg | 8.5 nM | 160 nM | 30 min | 440 ng/mL | 1.3 h | 1.3 L/kg | 15.8 mL/min/kg | 1400 ng·h/mL | 45% |
| CCNC(=O)Nc1sc2nc(C)ccc2c1C(=O)N1CCC(N2CCCC3(C2)OC(=O)N(C(C)C)C3=O)CC1 (stereo not given) | 2.39 | 38 µL/min/mg | 15 nM | 160 nM | – | – | – | – | – | – | – |
| CCNC(=O)Nc1sc2nc(C)ccc2c1C(=O)N1CCC(N2CCCC3(C2)N=C(C)N(C(C)C)C3=O)CC1 (stereo not given) | 2.27 | 47 µL/min/mg | 15 nM | 76 nM | – | – | – | – | – | – | – |
| CCN1C(=O)OC2(CCCN(C3CCN(C(=O)c4c(NC(N)=O)sc5ccccc45)CC3)C2)C1=O (racemic) | 1.85 | 41 µL/min/mg | – | – | – | – | – | – | – | – | – |
| CCNC(=O)Nc1sc2ccccc2c1C(=O)N1CCC(N2CCCC3(C2)C(=O)N(CC)C(=O)N3C)CC1 (racemic) | 2.79 | 190 µL/min/mg | 51 nM | 360 nM | – | – | – | – | – | – | – |
| CCN1C(=O)C2(CCCN(C3CCN(C(=O)c4c(NC(N)=O)sc5ccccc45)CC3)C2)N=C1C (racemic) | 1.77 | 60 µL/min/mg | 75 nM | 300 nM | – | – | – | – | – | – | – |
| CCC1=NC2(CCCN(C3CCN(C(=O)c4c(NC(N)=O)sc5ccccc45)CC3)C2)C(=O)N1CC (racemic) | 2.09 | 150 µL/min/mg | 43 nM | 410 nM | – | – | – | – | – | – | – |
| CCN1C(=O)C2(CCCN(C3CCN(C(=O)c4c(NC(N)=O)sc5ccccc45)CC3)C2)N=C1C(C)C (racemic) | 2.43 | 230 µL/min/mg | 17 nM | 80 nM | – | – | – | – | – | – | – |
| CCNC(=O)Nc1sc2ncccc2c1C(=O)N1CCC(N2CCCC3(C2)CC(C)(C)OC3=O)CC1 (racemic) | 2.08 | 110 µL/min/mg | 16 nM | 110 nM | – | – | – | – | – | – | – |
| CCNC(=O)Nc1sc2nc(C)ccc2c1C(=O)N1CCC(N2CCCC3(C2)CC(C)(C)OC3=O)CC1 (racemic) | 2.49 | 79 µL/min/mg | 14 nM | 78 nM | – | – | – | – | – | – | – |
| CCNC(=O)Nc1sc2cccnc2c1C(=O)N1CCC(N2CCCC3(C2)CC(C)(C)OC3=O)CC1 (racemic) | 2.45 | 120 µL/min/mg | 27 nM | 150 nM | – | – | – | – | – | – | – |
| CCNC(=O)Nc1sc2nccnc2c1C(=O)N1CCC(N2CCCC3(C2)CC(C)(C)OC3=O)CC1 (racemic) | 2.32 | 110 µL/min/mg | 37 nM | 150 nM | – | – | – | – | – | – | – |
| CCNC(=O)Nc1sc2nc(C)ccc2c1C(=O)N1CCC(N2CCCC3(C2)NC(=O)N(C(C)C)C3=O)CC1 (racemic) | 2.39 | 26 µL/min/mg | 17 nM | 150 nM | – | – | – | – | – | – | – |

The next lines start with the values.

| logD [1] | microsomal CLint at 1 µM [2] | IC50 [3] | IC50 [4] | Tmax [5] | Cmax [6] | MRT [7] | Vd [8] | clearance [9] | AUC [10] | bioavailability [11] | Compound |
| --- | --- | --- | --- | --- | --- | --- | --- | --- | --- | --- | --- |
| 3.01 | 230 µL/min/mg | – | – | – | – | – | – | – | – | – | CCNC(=O)Nc1sc2ccccc2c1C(=O)N1CCC(N2CCC[C@@]3(C2)CC(C)(C)OC3=O)CC1 |
| 3.01 | 180 µL/min/mg | – | – | – | – | – | – | – | – | – | CCNC(=O)Nc1sc2ccccc2c1C(=O)N1CCC(N2CCCC3(C2)CC(C)(C)OC3=O)CC1 (racemic) |
| – | 130 µL/min/mg | 32 nM | 230 nM | – | – | – | – | – | – | – | CCNC(=O)Nc1sc2ccccc2c1C(=O)N1CCC(N2CCCC3(CC(=O)N(CC)C3=O)C2)CC1 (racemic) |
| 2.47 | 98 µL/min/mg | 40 nM | 190 nM | – | – | – | – | – | – | – | CCNC(=O)Nc1sc2ccccc2c1C(=O)N1CCC(N2CCCC3(C2)OC(=O)N(CC)C3=O)CC1 (racemic) |
| 2.44 | 110 µL/min/mg | 22 nM | 280 nM | – | – | – | – | – | – | – | CCNC(=O)Nc1sc2ccccc2c1C(=O)N1CCC(N2CCCC3(C2)NC(=O)N(CC)C3=O)CC1 (racemic) |
| 2.06 | 35 µL/min/mg | 79 nM | 650 nM | – | – | – | – | – | – | – | CCNC(=O)Nc1sc2ccccc2c1C(=O)N1CCC(N2CCCC3(CCNC3=O)C2)CC1 (racemic) |
| 2.23 | 45 µL/min/mg | 64 nM | 510 nM | – | – | – | – | – | – | – | CCNC(=O)Nc1sc2ccccc2c1C(=O)N1CCC(N2CCCC3(CCN(C)C3=O)C2)CC1 (racemic) |
| 2.62 | 71 µL/min/mg | 33 nM | 350 nM | – | – | – | – | – | – | – | CCNC(=O)Nc1sc2ccccc2c1C(=O)N1CCC(N2CCCC3(CCN(CC)C3=O)C2)CC1 (racemic) |
| 2.61 | 66 µL/min/mg | 18 nM | 120 nM | – | – | – | – | – | – | – | CNC(=O)Nc1sc2ccccc2c1C(=O)N1CCC(N2CCCC3(CCN(C(C)C)C3=O)C2)CC1 (racemic) |
